Series [1] deals with human microvascular cells. As to the kind of experiment: inhibition of endothelial cell cord formation in vitro. For effect on endothelial cord formation: key: +: Inhibition of angiogenesis; -: No inhibition of angiogenesis; Toxic; *: cell rounding @ 10 µg/ml. The series is classed as cell-based. The source says:
Endothelial cells have the capacity in vitro to form tubular aggregates resembling capillaries in various early stages of formation. This conversion occurs under relatively specific conditions, in which essential growth factors along with an effective substratum are provided. It has been shown that both the interaction of growth factors with the endothelial cell and its attachment to a substratum activate the NHE. The activation of this exchanger is believed to be required for subsequent morphologic transformation of the endothelial cell into a multicellular tubular structure.
To assess the effect of compounds on the cord-like structures formed by human microvascular cells when plated in the presence of VEGF (Vascular Endothelial Growth Factor) and basic fibroblast growth factor on a collagen matrix, a standard cord formation assay was used.

Series [2] deals with chick embryo vitelline capillaries. The series is described as follows: chick embryo vitelline capillary regression assay. It is filed as in vivo. As to the method:
Using the chick embryo vitelline capillaries assay, compounds were tested for their ability to induce capillary regression. Each compound was applied in 0.1 ml of 15% Ficol 400 and PBS onto the embryo, and vascular regression was assessed after 60 minutes.
The 3-day chick embryo consists of an embryonic disc from which numerous vessels emerge and return, forming a "FIG. 8"-shaped structure--the embryo in the center with vascular loops extending outward over both poles. […] Following a lag period of around 15 minutes, the constriction of continuity between capillary and secondary vessels, generally on the "venous" side, was observed. Continued pulsatile blood flow progressed, resulting in a "swelling" of the blind tube, followed by a pinching off of the remaining connection and formation of an enclosed vascular sac resembling a "blood island." This process progressed until only the largest vessels remained intact.

In series [3] the test system is Human melanoma WM 1167. The series is described as follows: cytotoxic activity against cancer cells. It is filed as cell-based.
The test system of series [4] is Lewis lung carcinoma. The series is described as follows: cytotoxic activity against cancer cells. It is filed as cell-based.
Series [5] concerns human melanoma. The series is described as follows: effect on growth of human melanoma over time / mode of cell death. The series is classed as cell-based.
The test system of series [6] is C. albicans. The series is described as follows: antibiotic activity (MIC). The series is classed as cell-based. The settings on record: Candida albicans; C. albicans; read-out: MIC. The source says: (§1) Thus, it is possible to achieve an antimicrobial steroid with or without squalamine-like pharmacological activity.
Series [7] deals with E. coli. The series is described as follows: antibiotic activity (MIC). The series is classed as cell-based. The settings on record: Escherichia coli; E. coli; read-out: MIC.
Excerpt: as §1

Series [8] deals with P. aerug. The series is described as follows: antibiotic activity (MIC). It is filed as cell-based. The following applies: P. aerug; read-out: MIC.
Excerpt: as §1

Series [9] relates to S. aureus. The series is described as follows: antibiotic activity (MIC). It is filed as cell-based. The following applies: Staphylococcus aureus; S. aureus; read-out: MIC.
Excerpt: as §1

Series [10] deals with stage 59-60 Xenopus tadpole. The series is described as follows: Xenopus tadpole assay. The following applies: for tadpole response: 10 μg/ml, about 1 hour.
The test system of series [11] is B16 melanoma. As to the kind of experiment: suppression of growth of B16 melanoma in C57B mice. It is filed as in vivo, mouse. The following applies: subcutaneous, C57B mice, FIG. 6. As to the method: The growth of B16 melanoma in C57B mice is dependent upon neovascularization.
Using the growth of B16 melanoma cells in C57B mice, a recognized model for the evaluation of inhibitors of angiogenesis on the growth of cancers, the effects of subcutaneous, intraperitoneal and oral administration of squalamine were evaluated.
Based on the idea that tumor growth involves both the clonal expansion of a malignant cell along with the development of a supporting vascular supply, a combination of compound 1436 with squalamine was tested to determine whether it would achieve a synergistic effect on solid tumor growth. This concept was evaluated in the B16 melanoma model.
Animals were implanted with B16 melanoma followed by treatment with compound 1436 or 1256 administered in a combined schedule or separately. […] Thus, a combination of these two compounds achieves a therapeutic benefit in tumors dependent on neovascularization that may prevent metastatic spread.

Series [12] relates to NHE. As to the kind of experiment: comparison of compound 319 with squalamine through the assays. The source says:
Moreover, other aminosterols have shown anti-angiogenic activity. Compounds were subjected to a various assays, including the chick embryo capillary regression assay, the tadpole assay, the assay for inhibition of endothelial cord formation, and the assay for direct inhibition of NHE, as described above, to determine their utilities. As evident from the above data, correlation among the results from the chick, tadpole and in vitro inhibition of endothelial cell cord formation assays is excellent.
Through the application of these assays, compound 319 emerged as an attractive alternative to squalamine. […] Further properties of compound 319 are discussed below.

The test system of series [13] is L1210 lymphoblastic leukemia cells. The series is described as follows: mouse model of leukemia. The series is classed as in vivo.
Excerpt: C57B mice were inoculated with L1210 lymphoblastic leukemia cells at an inoculum that causes leukemia in 100% of animals.
Series [14] concerns Human ovarian carcinoma SKOV3. The series is described as follows: growth inhibition in vitro. It is filed as cell-based. The settings on record: SKOV3. As to the method:
As set forth in Table 7 below, all malignant tumors evaluated in tissue culture, endothelial cells and vascular smooth muscle cells were sensitive to inhibition. Thus, compound 1436 has application in the control of growth factor dependent proliferation of many types of tissue.
Using the assay described above, the anticancer effects of compound 1437 against several cancer lines was assessed.

Series [15] can be described thus: effect on fasting blood glucose in mice. It is filed as in vivo, mouse (male CD-1). The following applies: i.v. As to the method: To study the effect of steroid administrator or the NHE responsible for secretion of insulin, several of the aminosterols from shark liver were administered to fasting mice. Male CD-1 mice were assigned to one of four treatment groups. Whole blood glucose was tested using glucometer (Lifescan Glucometer II and One Touch test strips). Statistical analysis was via one-way analysis of variance (ANOVA) followed by subsequent Bonferonni's t-test.

From US5763430A, “Method of treating a viral infection by administering a steroid compound” (priority 1995, dated 1998) come the findings set out here.

≈ marks a conversion by molar mass, not a printed value. Entries after “also recorded” stand apart in the source; their conditions may differ.

As usually defined, the IC50 is the midpoint of a concentration-inhibition curve. The term MIC denotes the lowest concentration that inhibits growth of the organism.

For `CC(C)CCC[C@@H](C)[C@H]1CC[C@H]2[C@@H]3CC[C@H]4C[C@@H](NCCCNCCCCNCCCN)CC[C@]4(C)[C@H]3CC[C@]12C` [Compound 353], the “effect on endothelial cord formation” value in [1] (0.1 μg/ml), in series [1] (1.0 μg/ml) and in series [1] (10.0 μg/ml) was “+” throughout. For the same molecule, the minimal effective concentration in series [1] (Homo sapiens, Endothelial cell, Table II, read-out: Minimum Effective Concentration, Cord Formation) is 10 µg/mL. In addition, in [2], the “vitelline capillary regression, potency in words” value was “no effect on the chick embryo capillary bed”. Further, the IC50 in series [3] turned out to be 3 µg/mL (≈ 5.24 µM); in series [4] it was 1.9 µg/mL (≈ 3.32 µM). The “mode of cell death” value in [5] is “apoptotic cell death has been induced”. Besides, the MIC was determined as 32 µg/mL (≈ 55.8 µM) in [6], 128 µg/mL (≈ 223 µM) in series [7], 64 µg/mL (≈ 112 µM) in [8] and 16 µg/mL (≈ 27.9 µM) in [9]. In addition, the “similarity of pharmacologic activity in tadpole assay” value in series [10] (in vivo) is “effects like those produced by compound 1436”.
`C[C@H](CCC(=O)O)[C@H]1CC[C@H]2[C@@H]3CC[C@H]4C[C@@H](NCCCNCCCCN)CC[C@]4(C)[C@H]3CC[C@]12C` [Compound 319]: the “effect on endothelial cord formation” value in series [1] (0.01 μg/ml) is “-”; in [1] (0.1 μg/ml), “+”; in [1] (1.0 μg/ml) it was “+”; in [1] (10.0 μg/ml), “+”. Moreover, in [2] (Table 5), the relative activity entry is “especially active”. The “control of B16 melanoma” value in series [11] was “achieved control of B16 in C57B mice to an extent almost comparable to squalamine”. For the same molecule, the MIC in [6] is 8 µg/mL (≈ 15.9 µM); in [7], 32 to 64 µg/mL (≈ 63.5 to 127 µM); in series [8], 32 µg/mL (≈ 63.5 µM); in series [9], 64 µg/mL (≈ 127 µM). Besides, the “CNS effects (specificity)” value in series [12] was “no CNS effects”. Moreover, the “potency as an NHE inhibitor vs squalamine” value in series [12] was “superior to squalamine”. For the same molecule, the tadpole response entry in series [10] was “common vascular occlusive effect”.
As for `N.N.[Cl][Pt][Cl]` [Cisplatin, reference compound], in series [13], the hematological profile result is “profound anemia by day 28”.
In the case of `CC(C)C(CO)(CC[C@@H](C)[C@H]1CC[C@H]2[C@@H]3[C@H](O)C[C@H]4C[C@@H](NCCCNCCCCN)CC[C@]4(C)[C@H]3CC[C@]12C)OS(=O)(=O)O` (single isomer, unassigned) [Compound 1437], in [14], the anticancer activity result was “exhibit anticancer activity”. Also, in series [15], the hyperglycemia entry is reported as “caused hyperglycemia in mice”. In addition, the tadpole response entry in [10] was “Epithelium covering the embryonic portions of the animal, such as the tail and antennae, began to slough off in sheets; also recorded: the larval skin was observed to shed off in a sheet”.
